Data set [1] concerns the target T1, PIK3C2G (Homo sapiens, UniProt O75747).
T1 construct: purchased Eurofins DiscoverX KINOMEscan
T1 sequence (O75747 1-1486): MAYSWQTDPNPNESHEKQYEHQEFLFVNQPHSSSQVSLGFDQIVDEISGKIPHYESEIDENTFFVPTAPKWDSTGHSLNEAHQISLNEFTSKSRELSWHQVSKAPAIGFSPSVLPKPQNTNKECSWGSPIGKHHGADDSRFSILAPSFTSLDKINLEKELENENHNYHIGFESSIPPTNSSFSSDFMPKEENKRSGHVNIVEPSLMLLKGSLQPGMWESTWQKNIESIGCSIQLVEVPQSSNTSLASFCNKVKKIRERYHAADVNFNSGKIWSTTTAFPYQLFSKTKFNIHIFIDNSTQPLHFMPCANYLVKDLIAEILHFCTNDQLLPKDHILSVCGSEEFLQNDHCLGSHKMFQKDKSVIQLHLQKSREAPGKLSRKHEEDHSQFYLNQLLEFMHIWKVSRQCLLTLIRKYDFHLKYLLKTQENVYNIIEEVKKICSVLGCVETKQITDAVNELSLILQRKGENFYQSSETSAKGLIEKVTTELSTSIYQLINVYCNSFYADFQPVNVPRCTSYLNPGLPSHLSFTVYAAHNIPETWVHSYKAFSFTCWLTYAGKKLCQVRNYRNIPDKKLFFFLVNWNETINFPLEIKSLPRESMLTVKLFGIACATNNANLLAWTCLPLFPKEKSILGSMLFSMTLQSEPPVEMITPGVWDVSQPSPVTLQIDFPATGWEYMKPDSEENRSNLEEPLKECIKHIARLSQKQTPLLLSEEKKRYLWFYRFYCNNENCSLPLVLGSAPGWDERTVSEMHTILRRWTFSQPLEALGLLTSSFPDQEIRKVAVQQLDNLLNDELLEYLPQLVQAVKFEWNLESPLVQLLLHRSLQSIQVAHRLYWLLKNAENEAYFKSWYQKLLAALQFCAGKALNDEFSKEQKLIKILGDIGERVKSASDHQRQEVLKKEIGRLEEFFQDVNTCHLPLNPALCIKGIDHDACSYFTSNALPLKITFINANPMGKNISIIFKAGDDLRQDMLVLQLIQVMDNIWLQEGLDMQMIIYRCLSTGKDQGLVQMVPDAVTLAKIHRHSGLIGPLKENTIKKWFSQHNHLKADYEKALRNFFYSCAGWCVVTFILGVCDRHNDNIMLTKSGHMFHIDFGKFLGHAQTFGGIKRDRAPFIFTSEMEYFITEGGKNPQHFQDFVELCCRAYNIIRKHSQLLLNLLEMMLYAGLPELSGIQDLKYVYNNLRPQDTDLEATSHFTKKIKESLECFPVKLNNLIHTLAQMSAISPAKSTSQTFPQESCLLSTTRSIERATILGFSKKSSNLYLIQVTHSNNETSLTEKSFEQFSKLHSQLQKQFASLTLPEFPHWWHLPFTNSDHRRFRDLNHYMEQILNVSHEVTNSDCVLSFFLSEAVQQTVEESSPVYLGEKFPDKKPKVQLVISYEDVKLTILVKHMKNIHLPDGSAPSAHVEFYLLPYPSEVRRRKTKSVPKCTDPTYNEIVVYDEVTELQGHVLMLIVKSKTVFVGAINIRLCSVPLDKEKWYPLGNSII
Kind of data set: KINOMEscan. The following applies: read-out: % control activity remaining. In kind it is binding.

Data set [2] deals with T2, MARK4 (Homo sapiens, UniProt Q96L34).
T2 construct: purchased Eurofins DiscoverX KINOMEscan
T2 sequence (Q96L34 1-752): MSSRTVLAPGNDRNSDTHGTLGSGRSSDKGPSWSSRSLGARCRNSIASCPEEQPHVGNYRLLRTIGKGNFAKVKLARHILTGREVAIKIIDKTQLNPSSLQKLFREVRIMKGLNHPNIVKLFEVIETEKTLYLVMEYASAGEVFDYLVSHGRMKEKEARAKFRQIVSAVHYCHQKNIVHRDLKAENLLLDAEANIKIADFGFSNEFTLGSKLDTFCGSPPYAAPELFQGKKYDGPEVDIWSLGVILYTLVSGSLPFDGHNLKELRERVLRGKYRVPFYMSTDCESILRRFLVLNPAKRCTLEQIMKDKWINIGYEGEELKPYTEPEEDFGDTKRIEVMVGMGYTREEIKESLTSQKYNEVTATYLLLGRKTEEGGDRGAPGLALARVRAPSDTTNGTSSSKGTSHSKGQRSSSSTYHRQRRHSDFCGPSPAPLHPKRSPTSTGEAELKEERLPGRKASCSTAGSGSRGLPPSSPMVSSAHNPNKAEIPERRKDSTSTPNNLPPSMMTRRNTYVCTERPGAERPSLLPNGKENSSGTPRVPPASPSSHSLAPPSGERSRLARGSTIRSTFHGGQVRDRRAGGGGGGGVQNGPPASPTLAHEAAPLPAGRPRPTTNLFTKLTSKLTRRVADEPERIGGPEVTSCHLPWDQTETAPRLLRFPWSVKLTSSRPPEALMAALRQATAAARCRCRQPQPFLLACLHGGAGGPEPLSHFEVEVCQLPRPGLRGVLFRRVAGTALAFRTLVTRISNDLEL
Kind of data set: KINOMEscan. The following applies: read-out: % control activity remaining. In kind it is binding.

The target of data set [3] is T3, MAPKAPK2 (Homo sapiens, UniProt P49137).
T3 construct: purchased Eurofins DiscoverX KINOMEscan
Description: KINOMEscan. Type of data set: binding. Particulars: read-out: % control activity remaining.

Data set [4] has as its target T4, SGK3 (Homo sapiens, UniProt Q96BR1).
T4 construct: purchased Eurofins DiscoverX KINOMEscan
T4 sequence (Q96BR1 1-496): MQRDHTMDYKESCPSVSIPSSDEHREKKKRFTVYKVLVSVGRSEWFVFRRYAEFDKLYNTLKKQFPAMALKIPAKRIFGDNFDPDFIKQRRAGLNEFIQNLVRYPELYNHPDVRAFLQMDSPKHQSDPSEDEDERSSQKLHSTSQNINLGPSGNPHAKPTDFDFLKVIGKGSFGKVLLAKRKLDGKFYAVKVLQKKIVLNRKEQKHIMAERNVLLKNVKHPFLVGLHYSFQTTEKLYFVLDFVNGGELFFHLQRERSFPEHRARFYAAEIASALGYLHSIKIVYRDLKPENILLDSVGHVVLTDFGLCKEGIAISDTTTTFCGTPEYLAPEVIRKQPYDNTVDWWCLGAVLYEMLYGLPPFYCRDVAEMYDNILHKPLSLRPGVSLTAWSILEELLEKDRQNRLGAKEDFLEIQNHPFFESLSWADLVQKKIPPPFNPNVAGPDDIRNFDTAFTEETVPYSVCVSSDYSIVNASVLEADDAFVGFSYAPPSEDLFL
Description: KINOMEscan. The following applies: read-out: % control activity remaining. Type of data set: binding.

The target of data set [5] is T5, TLK2 (Homo sapiens, UniProt Q86UE8).
T5 construct: purchased Eurofins DiscoverX KINOMEscan
Description: KINOMEscan. In kind it is binding. Particulars: read-out: % control activity remaining.

The target in data set [6] is T6, CDK11 (Homo sapiens, UniProt Q9BWU1).
T6 construct: purchased Eurofins DiscoverX KINOMEscan
Description: KINOMEscan. Type of data set: binding. Particulars: read-out: % control activity remaining.

Data set [7] has as its target T7, CAMK1B (Homo sapiens, UniProt Q6P2M8).
T7 construct: purchased Eurofins DiscoverX KINOMEscan
Description: KINOMEscan. Type of data set: binding. Particulars: read-out: % control activity remaining.

Data set [8] can be described thus: Measured lipophilicity Log D7.4. Particulars: pH 7.4.

T5 sequence (Q86UE8 whole entry): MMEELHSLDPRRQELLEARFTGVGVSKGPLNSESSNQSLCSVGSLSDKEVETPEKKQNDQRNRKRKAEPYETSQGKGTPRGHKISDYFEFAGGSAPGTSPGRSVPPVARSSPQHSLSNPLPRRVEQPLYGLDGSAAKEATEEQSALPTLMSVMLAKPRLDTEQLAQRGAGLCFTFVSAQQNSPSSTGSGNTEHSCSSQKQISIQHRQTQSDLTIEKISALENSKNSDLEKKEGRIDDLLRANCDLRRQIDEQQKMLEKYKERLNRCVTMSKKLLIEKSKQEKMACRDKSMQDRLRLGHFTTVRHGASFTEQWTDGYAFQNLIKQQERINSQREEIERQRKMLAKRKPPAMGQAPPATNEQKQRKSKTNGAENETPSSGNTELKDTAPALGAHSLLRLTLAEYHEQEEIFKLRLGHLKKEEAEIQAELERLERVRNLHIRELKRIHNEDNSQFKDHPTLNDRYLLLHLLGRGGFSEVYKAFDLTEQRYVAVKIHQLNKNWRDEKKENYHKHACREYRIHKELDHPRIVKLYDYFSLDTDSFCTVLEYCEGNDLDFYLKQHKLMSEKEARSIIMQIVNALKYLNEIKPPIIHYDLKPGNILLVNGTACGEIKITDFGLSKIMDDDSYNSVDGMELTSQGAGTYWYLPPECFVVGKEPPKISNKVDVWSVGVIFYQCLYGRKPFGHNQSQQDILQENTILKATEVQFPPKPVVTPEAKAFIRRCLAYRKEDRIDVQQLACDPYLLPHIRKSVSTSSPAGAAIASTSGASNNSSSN
T3 sequence (P49137 whole entry): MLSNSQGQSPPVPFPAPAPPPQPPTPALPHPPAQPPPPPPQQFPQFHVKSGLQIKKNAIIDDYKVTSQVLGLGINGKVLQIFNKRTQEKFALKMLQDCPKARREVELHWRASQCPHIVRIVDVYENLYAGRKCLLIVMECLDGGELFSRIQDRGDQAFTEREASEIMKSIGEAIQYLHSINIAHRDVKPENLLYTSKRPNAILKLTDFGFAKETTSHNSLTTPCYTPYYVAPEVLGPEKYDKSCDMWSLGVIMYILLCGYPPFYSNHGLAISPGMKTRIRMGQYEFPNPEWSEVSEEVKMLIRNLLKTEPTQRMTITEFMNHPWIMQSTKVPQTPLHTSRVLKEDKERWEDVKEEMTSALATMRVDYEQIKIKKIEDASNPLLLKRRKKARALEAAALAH
T6 sequence (Q9BWU1 whole entry): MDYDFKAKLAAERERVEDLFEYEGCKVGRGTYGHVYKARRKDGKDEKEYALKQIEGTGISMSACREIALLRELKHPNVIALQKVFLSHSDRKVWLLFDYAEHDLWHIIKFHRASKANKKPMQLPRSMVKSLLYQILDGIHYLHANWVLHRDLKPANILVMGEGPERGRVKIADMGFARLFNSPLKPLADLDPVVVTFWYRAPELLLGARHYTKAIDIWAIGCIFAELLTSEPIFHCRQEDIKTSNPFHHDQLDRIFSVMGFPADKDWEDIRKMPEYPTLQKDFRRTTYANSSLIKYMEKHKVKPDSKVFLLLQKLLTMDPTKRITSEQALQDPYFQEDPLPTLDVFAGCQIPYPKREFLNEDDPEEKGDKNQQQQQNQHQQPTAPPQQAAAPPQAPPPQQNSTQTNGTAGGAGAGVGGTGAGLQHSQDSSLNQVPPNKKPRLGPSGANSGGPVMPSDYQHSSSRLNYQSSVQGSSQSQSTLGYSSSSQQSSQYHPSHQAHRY
T7 sequence (Q6P2M8 whole entry): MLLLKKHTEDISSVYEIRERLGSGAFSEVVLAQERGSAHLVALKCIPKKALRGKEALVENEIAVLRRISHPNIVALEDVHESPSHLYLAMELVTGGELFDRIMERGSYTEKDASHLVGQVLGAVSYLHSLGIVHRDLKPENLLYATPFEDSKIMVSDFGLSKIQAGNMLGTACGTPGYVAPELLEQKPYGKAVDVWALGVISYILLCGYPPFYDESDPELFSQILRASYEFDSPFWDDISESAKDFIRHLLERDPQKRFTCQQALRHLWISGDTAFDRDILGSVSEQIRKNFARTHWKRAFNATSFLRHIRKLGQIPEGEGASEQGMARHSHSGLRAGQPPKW

Turning to `Clc1cc(NCC2CC2)c2ncc(-c3ccc4[nH]ncc4c3)n2n1` [compound 2, 6-Chloro-N-(cyclopropylmethyl)-3-(1H-indazol-5-yl)imidazo[1,2-b]pyridazin-8-amine], the remaining binding at 1 µM in data set [1] came to 91%; in data set [2] it was 92%; in data set [3], 92%; in data set [4] it was 91%; in data set [5], 98%; in data set [6], 97%.
Regarding `O=C(CN1CCOCC1)N[C@H]1CC[C@H](Nc2cc(Cl)nn3c(-c4ccc5[nH]ncc5c4)cnc23)CC1` [compound 26], the remaining binding at 1 µM in data set [1] worked out at 80%; in data set [2], 95%; in data set [3] it was 100%; in data set [4], 65%; in data set [7], 75%; in data set [5] it was 95%. The remaining binding at 1 µM in data set [6] amounted to 98%. This compound registered a pH-dependent lipophilicity (logD) in data set [8] of 1.8.
As to `CN1CCC(CNc2cc(Cl)nn3c(-c4cc5nc(Nc6ccccc6)[nH]c5cc4F)cnc23)CC1` [compound 31, 6-Chloro-3-(6-fluoro-2-(phenylamino)-1H-benzo[d]imidazol-5-yl)-N-((1-methylpiperidin-4-yl)methyl)imidazo[1,2-b]pyridazin-8-amine], the remaining binding at 1 µM in data set [1] was 82%; in data set [2] it was 93%; in data set [3], 100%; in data set [4] it was 93%; in data set [7] it was 100%; in data set [5], 89%. In data set [6], the remaining binding at 1 µM turned out to be 91%. In data set [8], this compound showed a log distribution coefficient (logD) of 3.7.

In general, logD refers to the decadic logarithm of the distribution of all forms, ionised or not, between an organic phase and buffer at a given pH. A lower logD goes with lower lipophilicity.
